In ChEMBL document CHEMBL3988442, “University of Dundee, Small-Polar-MMV Screening Library” (2021):

Assays:
[1] = microbe, parasite or virus in culture; details: Mycobacterium tuberculosis, 72 h, read-out: pIC50 (converted)
[2] = microbe, parasite or virus in culture; details: Mycobacterium tuberculosis, 96 h, read-out: pIC50 (converted)

| SMILES | IC50 [1] | IC50 [2] |
| --- | --- | --- |
| Cc1ccc2[nH]c(C(=O)N3CCN(C)CC3)cc2c1 | 384 µM | 316 µM |
| COC(=O)c1ccc(CSc2n[nH]c(C)n2)o1 | 239 µM | 181 µM |
| Cc1c(C(=O)Nc2ccc3c(c2)OCCO3)cnn1C | > 501 µM | > 501 µM |
| CCCn1nnnc1NCc1ccc(F)cc1 | 37.8 µM | 19.8 µM |
| O=C(c1cnsn1)N1CCN(c2ccccn2)CC1 | 84.6 µM | 51.4 µM |
| CCCNC(=O)c1ccc2snnc2c1 | 153 µM | 169 µM |
| Cc1c(C(=O)NC2=NCCS2)oc2ccccc12 | 279 µM | 247 µM |
| COc1cccc(CNc2ccccn2)c1O | > 501 µM | > 501 µM |
| Cc1cc(N2CCNCC2)nc2ccccc12 | 140 µM | 93.7 µM |
| O=C(CCN1CCCCC1)c1ccc2c(c1)OCO2 | > 501 µM | > 501 µM |
| O=C(CN1CCNCC1)NCCSc1ccc(Cl)cc1 | 177 µM | 110 µM |
| O=C1CCCN1CCCNS(=O)(=O)c1ccc(Br)s1 | > 501 µM | 6.97 µM |
| CCOc1ccc(Cl)cc1CNCCNCC(C)O (configuration not stated) | 254 µM | 30.7 µM |
| Cn1nnnc1NCc1cccc(Cl)c1Cl | > 501 µM | > 501 µM |
| COc1ccc(C(=O)CCN(C)C)cc1 | 114 µM | 294 µM |
| c1ccc(CNc2cc(-n3cccn3)ncn2)cc1 | 11.2 µM | > 501 µM |
| CN(C(=O)c1ccccc1)S(=O)(=O)c1ccccc1 | 280 µM | 303 µM |
| CC(=O)Nc1ccc(N2C(=O)C=CC2=O)cc1 | 181 µM | > 501 µM |
| COCC(=O)NCc1noc(-c2cccc(C)c2)n1 | 265 µM | 160 µM |
| CC1CCCN(c2cc(CNS(C)(=O)=O)ccn2)C1 (configuration not stated) | 449 µM | 277 µM |
| CC1CCCCN1S(=O)(=O)c1ccc(CCN)cc1 (configuration not stated) | > 501 µM | > 501 µM |
| Cc1cccc(CC(=O)N2CCn3cnnc3C2)c1 | 170 µM | 187 µM |
| CC(C)CS(=O)(=O)NCc1ccc2c(c1)OCO2 | 183 µM | > 501 µM |

| SMILES | IC50 [1] | IC50 [2] |
| --- | --- | --- |
| Cc1ccc(C(O)c2cccnc2)cc1 (configuration not stated) | > 501 µM | > 501 µM |
| CCOC(=O)CNc1ccc(OC)cc1 | 124 µM | 335 µM |
| O=C(CC1COc2ccccc2O1)N1CCOCC1 (configuration not stated) | 74.9 µM | 64 µM |
| CCCNC(=O)c1cc(C(C)C)on1 | 9.31 µM | 44.3 µM |
| CCOCCC(=O)N1CCN(c2ccc(F)cc2)CC1 | 11.3 µM | 129 µM |
| Cc1ccc(C(C)C)c(OCC(O)CNCCO)c1 (configuration not stated) | 158 µM | 127 µM |
| O=C1CCC2(CNC(=O)C3CC3)CCCC=C2N1 (configuration not stated) | > 501 µM | > 501 µM |
| Nc1cc(C2CCN(C(=O)Cc3ccsc3)CC2)no1 | 264 µM | > 501 µM |
| COc1ncccc1CN(C)S(=O)(=O)c1cccs1 | 159 µM | 286 µM |
| O=C(CSc1ncnn1-c1ccccc1)N1CCCC1 | 200 µM | 101 µM |
| CN(CC1CCOCC1)C(=O)NCc1ccco1 | 95.8 µM | 125 µM |
| Clc1ccc(-c2noc(CN3CCCNCC3)n2)cc1 | 213 µM | 216 µM |
| O=C(NCC1CC1)c1noc(-c2ccccc2F)n1 | 16.4 µM | 99.7 µM |
| CCOc1ccc(CSc2nnc[nH]2)cc1 | 218 µM | 198 µM |
| Fc1ccc2nc(N3CCCNCC3)oc2c1F | 51.6 µM | 122 µM |
| FC(F)(F)c1ccc(OC2CCNCC2)nc1 | 189 µM | 230 µM |
| Cc1ccccc1-c1[nH][nH]c(=O)c1CCN | 230 µM | > 501 µM |
| O=C(CN1CCN(c2ccccc2)CC1)N1CCCC1 | > 501 µM | > 501 µM |
| Fc1cccc(-c2noc(C3CCCN3)n2)c1 (configuration not stated) | 271 µM | 286 µM |
| CN1CCCN(C(=O)c2ccco2)c2ccccc21 | 119 µM | 191 µM |
| COCCc1noc(C2CNC2)n1 | 247 µM | 250 µM |
| CCNCC(O)COc1ccc(C)cc1OC (configuration not stated) | 218 µM | 10.5 µM |
| CCNC(=O)c1cc(-c2ccc(F)cc2)n[nH]1 | 209 µM | > 501 µM |

| SMILES | IC50 [1] | IC50 [2] |
| --- | --- | --- |
| O=C(CSc1cnn[nH]1)Nc1ccc(Cl)cn1 | 99.4 µM | > 501 µM |
| OCCOCCNCc1ccc(-c2ccc(F)cc2)o1 | 288 µM | 127 µM |
| CCCn1nnc(NCc2ccc(OC)cc2)n1 | 115 µM | 25.1 µM |
| CCCn1nnnc1NCc1ccc(C)s1 | 64.7 µM | 51.8 µM |
| CN(Cc1cccn1C)C(=O)c1ccccc1F | 219 µM | 262 µM |
| CCOC(=O)Nc1ccc2c(c1)OCCO2 | > 501 µM | 325 µM |
| CCOC(=O)C1CCCN(C(=O)c2onc(C)c2Cl)C1 (configuration not stated) | 232 µM | 303 µM |
| OCCNCCNCc1ccc(-c2ccccc2Cl)o1 | 136 µM | 34.4 µM |
| CCOc1ccc(-c2cc(N)[nH]n2)cc1 | 232 µM | > 501 µM |
| NCC(=O)Nc1ccc(Cl)c(F)c1 | 212 µM | 120 µM |
| COc1ncccc1CN(C)C(=O)c1ccccc1F | > 501 µM | > 501 µM |
| CN1CCN(c2ccnc(SCC(N)=O)n2)CC1 | 289 µM | > 501 µM |
| Clc1cccc2nc(N3CCNCC3)oc12 | 144 µM | 349 µM |
| Nc1ncccc1C(=O)NCCC1=CCCCC1 | 230 µM | > 501 µM |
| OCCNCCNCc1cccc(Cl)c1Cl | 199 µM | 33.1 µM |
| O=C(NCCOCc1ccccc1)c1ccco1 | 249 µM | 245 µM |
| CC(C)Oc1ccc(CN)cc1 | 284 µM | > 501 µM |
| CC1CCCN(c2nc(C(=O)N3CCOCC3)cs2)C1 (configuration not stated) | 133 µM | 146 µM |
| CN1CCN(C(=O)c2cc(-c3cccs3)on2)CC1 | 171 µM | 107 µM |
| CC(C)c1ccc(NC(=O)CN)cc1 | 245 µM | 204 µM |
| O=C(CSCCO)Nc1ncc(-c2ccccc2)s1 | 174 µM | 272 µM |
| COCCNC(=O)c1cc(-c2cccc(O)c2)on1 | 231 µM | 157 µM |
| COc1c(C(=O)N2CCOCC2)sc2ccc(F)cc12 | 305 µM | 284 µM |

| SMILES | IC50 [1] | IC50 [2] |
| --- | --- | --- |
| CCc1ccc(OCn2cc(N)cn2)cc1 | 292 µM | 134 µM |
| NCc1nc(-c2ccc(OC(F)(F)F)cc2)no1 | 70.7 µM | 190 µM |
| CCOc1ccc(CC(=O)N2CCN(CC)CC2)cc1 | 371 µM | > 501 µM |
| CCCNC(=O)c1nnn(-c2ccccc2OC)c1C | 191 µM | 6.03 µM |
| O=C(CCn1cc(Br)cn1)NCc1cccs1 | 102 µM | 109 µM |
| NCCN1CCN(c2cccc(C(F)(F)F)c2)CC1 | 356 µM | 260 µM |
| CCN1CC(c2nc3ccccc3[nH]2)CC1=O (configuration not stated) | 250 µM | 260 µM |
| COC(=O)NCCc1ccccc1OC | 98.5 µM | > 501 µM |
| CCCn1ccc(NC(=O)c2cccc(C#N)c2)n1 | > 501 µM | > 501 µM |
| CCn1ccc(C(=O)N(C)Cc2cccnc2OC)n1 | > 501 µM | 212 µM |
| CC(O)CNCCNCc1ccc(-c2ccccc2)o1 (configuration not stated) | 275 µM | 113 µM |
| O=C(NCC1CCCO1)c1cc(-c2cccs2)on1 (configuration not stated) | 38.3 µM | 54.8 µM |
| CN(C)C(=O)c1csc(N2CCCCC2)n1 | 46.6 µM | 58.7 µM |
| Cn1nccc1C(=O)N1CCC(Oc2ccccc2)C1 (configuration not stated) | 232 µM | 161 µM |
| O=C(CCn1cccc1)NCc1ccco1 | 96 µM | > 501 µM |
| CCn1nnc(NCc2ccccc2)n1 | 229 µM | > 501 µM |
| CNC(=O)c1cc(-c2ccccc2C)n[nH]1 | > 501 µM | 180 µM |
| O=C(Nc1cccc(Cl)c1)C1CCCN1 (configuration not stated) | 147 µM | > 501 µM |
| CCOc1ccc(CNC(=O)CCn2cccn2)cc1 | 148 µM | > 501 µM |
| NC(=O)CSc1nnc(-c2cc(Br)ccc2O)[nH]1 | 210 µM | 247 µM |
| Cc1cc(CN)on1 | 293 µM | 293 µM |
| CCCNc1cc(-n2cccn2)ncn1 | 58.4 µM | 280 µM |
| COC(=O)N1CCN(c2ccccn2)CC1 | > 501 µM | 168 µM |

| SMILES | IC50 [1] | IC50 [2] |
| --- | --- | --- |
| CCCNC(=O)CSCc1nc(-c2ccccc2)no1 | 239 µM | 437 µM |
| CCn1c(SCC(N)=O)nnc1-c1cc(Br)cs1 | 254 µM | 249 µM |
| COC(=O)CS(=O)(=O)c1ccc(C)c(Cl)c1 | 249 µM | > 501 µM |
| O=C(NCCCn1ncc2ccccc21)C1CC1 | 150 µM | 147 µM |
| Cc1ccc2c(c1)OC(C)CN2C(=O)c1ccccn1 (configuration not stated) | > 501 µM | > 501 µM |
| OCCNCCNCc1ccc(-c2ccccc2)o1 | 159 µM | 29.2 µM |
| O=C1C=CC(=O)N1c1ccccc1OC(F)F | 109 µM | 143 µM |
| NCC1CN(c2nc3cc(Cl)ccc3o2)CCO1 (configuration not stated) | 75.2 µM | 271 µM |
| Cn1cc(CNC(=O)c2cccc(I)c2)cn1 | 166 µM | 70.2 µM |
| COc1ccc(C(N)CO)c2ccccc12 (configuration not stated) | 193 µM | 313 µM |
| COc1ccc(Nc2ncccc2S(N)(=O)=O)cc1 | > 501 µM | > 501 µM |
| C1CC(COCCc2noc(C3CNC3)n2)CCO1 | 337 µM | 279 µM |
| CCn1ccc(C(=O)NCc2ccco2)n1 | 232 µM | > 501 µM |
| c1ccc2[nH]c(NCC3CCCO3)nc2c1 (configuration not stated) | > 501 µM | 166 µM |
| Cc1cc(C(=O)NCc2cccc(F)c2)no1 | 52.9 µM | 308 µM |
| Cc1ccc(CNCCOc2ccccn2)o1 | > 501 µM | 98.7 µM |
| COc1ccc(C(=O)CCN(C)C)cc1OC | 276 µM | 285 µM |
| Cc1ccc(C(=O)N2CCC3(CCCCO3)CC2)cn1 | 258 µM | > 501 µM |
| CCN1CCN(C(=O)c2ccc(C)c(C)c2)CC1 | > 501 µM | > 501 µM |
